We go through two molecules from patent publication US8022103B2, “Ester prodrugs of prostratin and related phorbol compounds” (Salvia Sciences, Inc., priority 2005, dated 2011).

The term IC50 denotes the concentration at which inhibition is half-maximal. For orientation: IC90 means the point of the concentration-response curve where the effect stands at 90%.

The assay has as its system HIV-1Ba-L. The assay is described as follows: Anti-HIV efficacy in human monocyte/macrophages (p24 ELISA). The class given is cell-based. The method, then: SA-101A and SA-101B were tested for antiviral activity against HIV-1 virus in peripheral blood monocytes/macrophages. Monocytes/macrophages were derived from normal HIV-1 negative donors, and cultured under conditions which promote cell survival and HIV replication. Fresh human blood was obtained commercially from Biological Specialty Corporation (Colmar, Pa.). The low passage, monocytropic, clinical isolate HIV-1Ba-L (Subtype B, R5) was obtained from the NIAID AIDS Research and Reference Reagent Program. A pre-titered aliquot of HIV 1Ba-L was removed from the freezer (−80° C.) and thawed rapidly to room temperature in a biological safety cabinet immediately before use. Phytohemagglutinin (PHA-P) was obtained from Sigma (St. Louis, Mo.) and recombinant IL-2 was obtained from R&D Systems Inc. (Minneapolis, Minn.).
Compound preparation: Compounds SA-101A and SA-101B were in powder form and solubilized in DMSO prior to use. AZT (Sigma), solubilized in sterile dH2O, was used as the positive antiviral control. The compounds were tested at a 100 μg/mL high-test concentration; AZT was tested at a 1,000 ηM high-test concentration. Compound SA-101B was tested in the presence of 40% human AB serum.
Monocyte isolation and culture. Peripheral blood monocytes were isolated from screened donors sero-negative for HIV and HBV. Cells were pelleted by low speed centrifugation and re-suspended in PBS to remove contaminating platelets. The leukophoresed blood was then diluted with Dulbecco's phosphate buffered saline (PBS) and layered over of Lymphocyte Separation Medium (LSM; Cellgro® by Mediatech, Inc.; density 1.078+/−0.002 g/ml; Cat. # 85-072-CL) in a 50 mL centrifuge tube and then centrifuged. Banded PBMCs were gently aspirated from the interface and subsequently washed with PBS by low speed centrifugation. The cells were diluted to 4×10^6 cells per mL in DMEM without phenol red supplemented with 10% heat inactivated human pooled AB serum, 2 mM L-glutamine, 100 U/mL penicillin and 100 μg/mL streptomycin. Monocytes/macrophages were allowed to adhere to the interior 60 wells (100 μL/well) of a 96 well flat bottomed plate for 2 to 18 hours at 37° C., 5% CO2. The exterior wells were filled with 200 μL of sterile DPBS to serve as a humidity barrier. Following adherence of cells, the cultures were washed with sterile DPBS to remove non-adherent cells (lymphocytes and contaminating RBCs). […]
Anti-HIV efficacy evaluation in human monocyte/macrophages. […] At assay termination, virus replication was measured by collecting cell-free supernatant samples, which were analyzed for HIV p24 antigen content using a commercially available p24 ELISA assay (Coulter). […]
In general terms: In an ELISA, binding on a coated surface is turned into a signal by an enzyme label.

Each structure is given as a SMILES string. ≈ marks a conversion by molar mass, not a printed value. Read-outs that look alike come from different tables or passages of the source.

Take `CC(=O)O[C@@]12C[C@@H](C)[C@@]3(O)[C@@H](C=C(CO)C[C@]4(O)C(=O)C(C)=C[C@@H]34)[C@@H]1C2(C)C` [SA-101A, 12-deoxyphorbol 13-acetate]: the IC50 (Human immunodeficiency virus 1, Macrophage, read-out: IC50) was 0.11 µg/mL (≈ 0.282 µM). The IC90 (Human immunodeficiency virus 1, Macrophage, read-out: IC90) turned out to be 0.28 µg/mL (≈ 0.717 µM).

Regarding `CC(=O)OC12CC(C)C3(O)C(C=C(COC(=O)CCC(=O)O)CC4(O)C(=O)C(C)=CC43)C1C2(C)C` (stereo not shown) [SA-101B, Prostratin Succinate], under “40% Human AB serum”, the IC50 came out at 0.28 µg/mL and the IC90 was 7.29 µg/mL.
